Data set [1] in a line: Half-life of β1EC2-peptides in rat whole blood ex vivo. The following applies: for Half-life in whole blood, in words: ex vivo incubation experiments with whole blood (Fig. 1G); for half-life: rat, whole blood.
Data set [2] deals with anti-β1EC2-secreting cells. Put plainly: ELISPOT of splenocytes and bone marrow cells. The format is in vivo, Lewis/CrlBR rats. How it is done:
(b) For ELISPOT assays plates were coated overnight with either 1.8 μg/ml anti-rat IgG (H+L) or the specific antigens (GST/β1EC2-FP or GST alone) in 50 mM Tris-buffer, pH 9.4. The plates were then washed 3 times, blocked with BSA (3h, 37°C), and incubated overnight at 37°C with splenocytes or bone marrow cells from rats treated as indicated in RPMI 1640/X-VIVO-15 medium supplemented with 10% FCS (1x10^3 to 10^6 cells per well). After 12 h the cells were discarded and the plates were washed several times (PBS/0.5% Tween) before an alkaline phosphatase-conjugated secondary anti-rat-IgG antibody (0.3 μg/ml) was added to detect bound rat IgG. After further incubation (3h, 37°C) and washing-steps (3 times PBS/0.5% Tween) the plates were developed using LMP/BCIP 5:1 (1.0 ml per well; LMP, low melting agarose; BCIP, 5-bromo-4-chloro-3-indolyl phosphate p-toluidine salt, a blue-colored dye).
Fig 5 Immunology of cyclic β1EC2-peptides: fate of β1EC2-specific T- and B-cells. (A) Titer-course of anti-β1EC2-abs in β1EC2-CP-treated rats during the first 6 months of the prevention-study before and 24h after cyclopeptide-injection. Time-points of antigen-boosts are indicated by (red) lines, time-points of CP-injections by (green) arrows. For better readability error-bars are not shown in the graph. (B) Pre-experiments (antigenic recall-assays) performed with CD4^+ T-cells prepared from spleens of GST/β1EC2 fusion-protein (FP)-immunised untreated (n = 3, black) vs. 0.9%NaCl-injected control rats (n = 3, white). (C and D) Reactivities of CD4^+ T-cells prepared from (C) preventively or (D) therapeutically β1EC2-CP- (green) or bisoprolol-treated animals (blue) compared to cells prepared from immunised untreated (black) or corresponding 0.9%NaCl-injected control rats (white). Columns ± error bars represent mean T-cell reactivities ±SEM normalized to medium (abbreviations: EC2-CP, cyclopeptide mimicking β1EC2; GST, glutathion-S-transferase; PPD, purified protein derivative; FP, GST/β1EC2 fusion-protein). […]

For data set [3], the system named is anti-β1EC2-induced heart failure (β1EC2/GST-FP-immunised rats). Nature of the data set: Heart histology (fibrotic scars, TUNEL, mast cells), therapy-study. Format: in vivo, Lewis/CrlBR rats. The following applies: for number of myocardial fibrotic scars, in words: midventricular 2μm-sections (Fig. 3A and B); for TUNEL-positive apopotic cells, in words: midventricular 2μm-sections (Fig. 3C); for increase in cardiac mast cells, in words: toluidine blue, mono- or co-treatment (Fig. 3E). From the text:
Fig 3 Histology of rat hearts (therapy-study). (A) Representative H&E-stained 2μm cross-sections of hearts (from the left to the right) from a control rat, an immunised untreated rat, a bisoprolol- and a β1EC2-CP mono-treated rat, and a β1EC2-CP/bisoprolol co-treated rat. (B) Quantification of fibrotic scars in midventricular 2μm-sections (mvhs, mid-ventricular heart-section). Columns ± error bars represent the mean number of fibrotic scars ±SEM per 3 heart sections in the indicated groups. (C) TUNEL-assay with 2μm-mvhs. Columns ± error bars represent mean numbers ±SEM of apoptotic cells (kind of cells not specified) /3 mvhs. (D) qRT-PCR of apical cardiac tissues. Columns ± error bars represent the expression of the indicated pro-fibrotic markers ±SEM in the indicated treatment-groups normalised to controls. (E) Mast cells in 2μm paraffin-mvhs from the indicated treatment-groups; columns ± error bars represent the mean numbers ±SEM of mast cells/mm^2 cardiac tissue. For all parameters shown, differences between the treatment-groups were assessed by […] one way ANOVA and Dunnett`s post-hoc test; *p<0.05; **p<0.001.

Peptide text beside a SMILES is read from it.

On to `CC(C)[C@@H]1NC(=O)[C@H](Cc2ccccc2)NC(=O)[C@H](CC(=O)O)NC(=O)[C@H](CS)NC(=O)[C@H](CS)NC(=O)[C@H](CCCCN)NC(=O)[C@@H]2CCCN2C(=O)[C@H](CC(=O)O)NC(=O)[C@H](CC(N)=O)NC(=O)[C@H](Cc2ccc(O)cc2)NC(=O)[C@H](CS)NC(=O)[C@H](CCCNC(=N)N)NC(=O)[C@H](CCCNC(=N)N)NC(=O)[C@H](C)NC(=O)[C@H](CCC(=O)O)NC(=O)[C@H](CC(=O)O)NC(=O)[C@H](CO)NC(=O)[C@H](CCC(=O)O)NC(=O)[C@H](C)NC(=O)[C@H](CCCNC(=N)N)NC(=O)[C@H](C)NC(=O)[C@H](CCC(N)=O)NC(=O)CNC(=O)[C@H](CCCNC(=N)N)NC(=O)[C@H](CC(N)=O)NC(=O)[C@H]([C@@H](C)O)NC1=O` [β1EC2-CP] (cyclo(AESDEARRCYNDPKCCDFVTNRGQAR)), for which, in data set [1], the “Half-life in whole blood, in words” value is reported as “days” and the half-life (usually the time needed for the level to fall by half in the phase considered) is 20.2 days. Moreover, the “overall numbers of IgG-producing cells, in words” value in data set [2] (ELISPOT (Fig. 5F, H, and J)) is “not at all affected”. The “frequencies of anti-β1EC2-producing (long-lived) PC, in words” value in data set [2] (ELISPOT, splenocytes or bone marrow cells two weeks after the last antigen-boost (Fig. 5E and F)) is reported as “did not reduce”. For the same molecule, in data set [3], the “number of myocardial fibrotic scars, in words” value is on record as “returned to normal levels”; the “TUNEL-positive apopotic cells, in words” value is “returned to normal levels”; the “increase in cardiac mast cells, in words” value was “reversed to control levels”.

`CC(C)NCC(O)COc1ccc(COCCOC(C)C)cc1` (stereo not shown) [bisoprolol, reference compound]: in data set [3], the “number of myocardial fibrotic scars, in words” value is “not seen”; the “TUNEL-positive apopotic cells, in words” value is reported as “not seen”; the “increase in cardiac mast cells, in words” value is “reversed to control levels”.

Turning to `CC(C)[C@H](NC(=O)[C@H](Cc1ccccc1)NC(=O)[C@H](CC(=O)O)NC(=O)[C@H](CS)NC(=O)[C@H](CS)NC(=O)[C@H](CCCCN)NC(=O)[C@@H]1CCCN1C(=O)[C@H](CC(=O)O)NC(=O)[C@H](CC(N)=O)NC(=O)[C@H](Cc1ccc(O)cc1)NC(=O)[C@H](CS)NC(=O)[C@H](CCCNC(=N)N)NC(=O)[C@H](CCCNC(=N)N)NC(=O)[C@H](C)NC(=O)[C@H](CCC(=O)O)NC(=O)[C@H](CC(=O)O)NC(=O)[C@H](CO)NC(=O)[C@H](CCC(=O)O)NC(=O)[C@H](C)NC(=O)[C@H](CCCNC(=N)N)NC(=O)[C@H](C)N)C(=O)N[C@H](C(=O)N[C@@H](CC(N)=O)C(=O)N[C@@H](CCCNC(=N)N)C(=O)NCC(N)=O)[C@@H](C)O` [β1EC2-Lin] (H-ARAESDEARRCYNDPKCCDFVTNRG-NH2; N-terminus and C-terminus assumed), in data set [1], the “Half-life in whole blood, in words” value is “hours” and the half-life was 0.167 days. For the same molecule, in data set [2] (ELISPOT 3 days after antigen-boost (S5A Fig.)), the “reduction in the frequencies of splenocytes secreting anti-β1EC2-abs, in words” value is “not achieved”.

The values above are taken from PMC4336331, “Novel Receptor-Derived Cyclopeptides to Treat Heart Failure Caused by Anti-β1-Adrenoceptor Antibodies in a Human-Analogous Rat Model” (PLoS ONE, 2015).
